What is called IC50 is the concentration at which inhibition is half-maximal.

Drawing on patent US9732104B2, “Ether compounds for treatment of complement mediated disorders” (Achillion Pharmaceuticals, Inc., priority 2014, dated 2017), this text covers IC50 for six compounds.

This test addresses Human factor D (Homo sapiens (Human), UniProt P00746). Put plainly: Human Factor D Assay. The format is biochemical. The note with it: Human factor D purified from human serum, 80 nM; substrate Z-L-Lys-SBzl with DTNB; assay of Example 8. The protocol: The assay of Example 8 was used to determine the IC50's of the compounds. Other standard factor D inhibition assays are also available.
Example 8. Human Factor D Assay
Human factor D (purified from human serum, Complement Technology, Inc.) at 80 nM final concentration is incubated with test compound at various concentrations for 5 minutes at room temperature in 50 mM Tris, 1M NaCl, pH 7.5. A synthetic substrate Z-L-Lys-SBzl and DTNB (Ellman's reagent) are added to final concentrations of 100 µM each. The increase in color is recorded at OD405 nm in a microplate in kinetic mode over 30 minutes with 30 second time points in a […]. IC50 values are calculated by non-linear regression from the percentage of inhibition of complement factor D activity as a function of test compound concentration.

Sequence of Human factor D (P00746 26-253): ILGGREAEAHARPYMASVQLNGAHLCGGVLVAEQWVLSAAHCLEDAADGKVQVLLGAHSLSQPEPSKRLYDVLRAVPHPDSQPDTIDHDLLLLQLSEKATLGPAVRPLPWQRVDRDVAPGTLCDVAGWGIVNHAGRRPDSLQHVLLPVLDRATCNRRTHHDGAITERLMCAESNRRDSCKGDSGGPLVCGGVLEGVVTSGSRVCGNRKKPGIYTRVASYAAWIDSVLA

Consider `CC(=O)c1cn(CC(=O)N2C[C@H](F)C[C@H]2C(=O)NCc2cccc(Cl)c2F)c2cc(OCP(=O)(OCOC(=O)OC(C)C)OCOC(=O)OC(C)C)ccc12` [Compound 12, (((3-acetyl-1-(2-((2S,4R)-2-(3-chloro-2-fluorobenzylcarbamoyl)-4-fluoropyrrolidin-1-yl)-2-oxoethyl)-1H-indol-6-yloxy)methyl)phospho-ryl)bis(oxy)bis(methylene) isopropyl dicarbonate], for which the IC50 is under 1000 nM.

The compound `CCP(=O)(O)COc1ccc2c(C(C)=O)cn(CC(=O)N3C[C@H](F)C[C@H]3C(=O)NCc3cccc(Cl)c3F)c2c1` [Compound 16, (3-acetyl-1-(2-((2S,4R)-2-(3-chloro-2-fluorobenzylcarbamoyl)-4-fluoropyrrolidin-1-yl)-2-oxoethyl)-1H-indol-6-yloxy)methyl(eth-yl)phosphinic acid] had an IC50 of under 1000 nM.

As to `CCOP(=O)(COc1ccc2c(C(C)=O)cn(CC(=O)N3C[C@H](F)C[C@H]3C(=O)NCc3cccc(Cl)c3F)c2c1)OCC` [Compound 7, diethyl (3-acetyl-1-(2-((2S,4R)-2-(3-chloro-2-fluorobenzylcarbamoyl)-4-fluoropyrrolidin-1-yl)-2-oxoethyl)-1H-indol-6-yloxy)methylphosphonate], the IC50 is under 1000 nM.

`CC(=O)c1cn(CC(=O)N2C[C@H](F)C[C@H]2C(=O)Nc2cccc(-c3ccccc3Cl)c2F)c2ccc(Oc3ncccn3)cc12` [Compound 38, (2S,4R)-1-(2-(3-acetyl-5-(pyrimidin-2-yloxy)-1H-indol-1-yl)acetyl)-N-(2′-chloro-2-fluorobiphenyl-3-yl)-4-fluoropyrrolidine-2-carboxamide] showed an IC50 of under 1000 nM.

As for `CC(=O)c1cn(CC(=O)N2C[C@H](F)C[C@H]2C(=O)NCc2cccc(Cl)c2F)c2cc(OCS(=O)(=O)NC(C)(C)C)ccc12` [Compound 15, (2S,4R)-1-(2-(3-acetyl-6-(N-tert-butylsulfamoylmethoxy)-1H-indol-1-yl)acetyl)-N-(3-chloro-2-fluorobenzyl)-4-fluoropyrrolidine-2-carboxamide], the IC50 was under 1000 nM.

In turn, `CC(=O)c1cn(CC(=O)N2C[C@H](F)C[C@H]2C(=O)Nc2cccc(OC(F)(F)F)c2F)c2cc(OCP(=O)(O)O)ccc12` [Compound 27, (3-acetyl-1-(2-((2S,4R)-4-fluoro-2-(2-fluoro-3-(trifluoromethoxy)phenyl-carbamoyl)pyrrolidin-1-yl)-2-oxoethyl)-1H-indol-6-yloxy)methylphosphonic acid] yielded an IC50 of under 1000 nM.
